For 31 compounds, IC50 results are on record in patent publication US12624034B2, “Non-covalent modifiers of AKT1 and uses thereof” (Terremoto Biosciences, Inc., priority 2023, dated 2026).

SMILES strings stand for the structures. Like-named read-outs stand apart in the source and are kept apart here.

One test concerns the target T1, AKT2 (Homo sapiens, UniProt P31751).
T1 construct: expressed in transfected cells; host or cells: HEK293
Description: Live cell AKT2 target engagement by NanoBRET competitive probe displacement in HEK293 cells. The format is binding. To be noted: 2 h at 37° C., read-out: AKT2 IC50. How it is done:
(§1) Determining live cell AKT1 E17K, AKT1 WT, and AKT2 target engagement by NanoBRET competitive probe displacement. […] Briefly, HEK293 cells were transfected with plasmids encoding kinase-NanoLuciferase fusion proteins overnight. Cells were then treated with serial dilutions of compound and an ˜EC50 concentration of fluorescently-tagged ATP-competitive tracer (Promega). After incubation for 2 h at 37° C., luciferase substrate and extracellular luciferase inhibitor were added to all wells, and luminescent intensity at 460 nm and 600 nm were measured on a multimode plate-reader. The ratio of E600/E460 was calculated to give the tracer engagement signal (BRET). IC50 values were calculated by fitting BRET values to a log(inhibitor) vs. response Hill equation.

The target in a further test is T2, AKT1 WT (Homo sapiens, UniProt P31749).
T2 construct: expressed in transfected cells; host or cells: HEK293
T2 sequence (P31749 whole entry): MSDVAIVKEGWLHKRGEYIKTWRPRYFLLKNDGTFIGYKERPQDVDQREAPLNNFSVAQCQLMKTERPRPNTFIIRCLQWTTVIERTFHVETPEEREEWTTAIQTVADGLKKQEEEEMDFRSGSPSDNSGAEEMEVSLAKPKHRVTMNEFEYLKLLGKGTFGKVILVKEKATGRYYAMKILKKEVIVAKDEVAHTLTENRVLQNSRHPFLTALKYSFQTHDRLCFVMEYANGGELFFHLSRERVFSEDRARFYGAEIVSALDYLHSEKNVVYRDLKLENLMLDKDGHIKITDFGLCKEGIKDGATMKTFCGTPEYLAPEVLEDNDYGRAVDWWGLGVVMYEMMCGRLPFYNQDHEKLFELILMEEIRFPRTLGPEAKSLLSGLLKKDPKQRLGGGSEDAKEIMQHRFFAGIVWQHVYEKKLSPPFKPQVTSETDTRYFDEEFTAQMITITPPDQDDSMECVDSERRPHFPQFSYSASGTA
Briefly: Live cell AKT1 WT target engagement by NanoBRET competitive probe displacement in HEK293 cells. It counts as binding. As to conditions: 2 h at 37° C. How it is done: as §1
On the technique in general: Bioluminescence resonance energy transfer reports proximity on the nanometre scale.

[1] abbreviates: NanoBRET live cell target engagement, HEK293 cells.
Setting [2] is: NanoBRET live cell target engagement, HEK293 cells, read-out: AKT1 WT IC50.
[3] abbreviates: NanoBRET competitive probe displacement, live HEK293 cells.
Setting [4] is: NanoBRET competitive probe displacement, live HEK293 cells, read-out: AKT1 WT IC50.

T1 sequence (P31751 whole entry): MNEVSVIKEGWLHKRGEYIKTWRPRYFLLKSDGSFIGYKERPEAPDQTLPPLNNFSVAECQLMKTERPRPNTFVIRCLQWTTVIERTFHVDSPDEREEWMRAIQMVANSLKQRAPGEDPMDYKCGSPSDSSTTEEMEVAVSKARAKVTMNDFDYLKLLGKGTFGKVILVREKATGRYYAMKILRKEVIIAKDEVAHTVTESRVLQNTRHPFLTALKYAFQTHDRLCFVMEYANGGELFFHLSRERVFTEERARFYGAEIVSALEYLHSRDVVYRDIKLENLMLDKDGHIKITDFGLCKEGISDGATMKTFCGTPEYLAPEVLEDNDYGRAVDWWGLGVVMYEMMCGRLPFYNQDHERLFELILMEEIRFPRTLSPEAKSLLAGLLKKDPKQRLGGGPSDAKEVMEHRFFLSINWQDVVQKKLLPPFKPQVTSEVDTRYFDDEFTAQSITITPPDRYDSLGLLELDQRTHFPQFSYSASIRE

On to `Nc1ncccc1-c1nc2ccc(-n3nccn3)nc2n1-c1ccc2c(c1)CC[C@@H]2NC(=O)c1cccnc1C(F)F` [Compound 107], for which the IC50 was more than 10000 nM at AKT2 (setting [1]) and 118 nM at AKT1 WT (setting [2]).

For the compound `Nc1ncccc1-c1nc2ccc(-n3cccn3)nc2n1-c1ccc2c(c1)CC[C@@H]2n1cc(Cc2ccccc2)nn1` [Compound 156], the IC50 on AKT2 (setting [1]) stood at 722 nM; at AKT1 WT (setting [2]) it was 39.3 nM.

Consider `Cc1ccc(C(=O)N[C@H]2CCc3cc(-n4c(-c5cccnc5N)nc5ccc(-c6nc(C)co6)nc54)ccc32)cn1` [Compound 267], for which the values for the IC50 on AKT2 (setting [1]) and at AKT1 WT (setting [2]) were 286 nM and 14.6 nM, respectively.

On to `COc1ccn(-c2ccc3nc(-c4cccnc4N)n(-c4ccc5c(c4)CC[C@@H]5NC4CN(C(=O)C5CC5)C4)c3n2)n1` [Compound 484], for which the IC50 at AKT2 (setting [3]) worked out at 3850 nM; on AKT1 WT (setting [4]), 28.4 nM.

Turning to `Nc1ncccc1-c1nc2ccc(-n3cccn3)nc2n1-c1ccc2c(c1)CC[C@@H]2NC1CCN(c2cccnc2)C1` (some centres unmarked) [Compound 471], the values for the IC50 at AKT2 (setting [3]) and on AKT1 WT (setting [4]) were 1040 nM and 39 nM, respectively.

On to `Cc1ccc(C(=O)N[C@H]2CCc3cc(-n4c(-c5cccnc5N)nc5ccc(-c6nc(C(F)F)cs6)nc54)ccc32)cn1` [Compound 403], for which the IC50 at AKT2 (setting [3]) came to 20.1 nM; at AKT1 WT (setting [4]), 6.13 nM.

`Nc1ncccc1-c1nc2ccc(-c3ccn(C(F)F)n3)nc2n1-c1ccc2c(c1)CC[C@@H]2NC(=O)c1ccc(C(F)F)nc1` [Compound 74]: the IC50 at AKT2 (setting [1]) came out at 34.8 nM; at AKT1 WT (setting [2]) it was 4.94 nM.

As to `Cc1cc(C(=O)N[C@H]2CCc3cc(-n4c(-c5cccnc5N)nc5ccc(-n6cccn6)nc54)ccc32)ccn1` [Compound 75], the concentration for half-maximal inhibition (IC50) at AKT2 (setting [1]) came out at 73.6 nM; on AKT1 WT (setting [2]) it was 5.99 nM.

On to `COc1csc(-c2ccc3nc(-c4cccnc4N)n(-c4ccc5c(c4)CC(F)[C@@H]5NC4CCN(C(=O)C5CC5)CC4)c3n2)n1` (some centres unmarked) [Compound 559], for which the IC50 stood at 268 nM at AKT2 (setting [3]) and 5.67 nM at AKT1 WT (setting [4]).

For `Nc1ncccc1-c1nc2ccc(-n3cccn3)nc2n1-c1ccc2c(c1)CC[C@@H]2n1cc(-c2cccnc2)nn1` [Compound 199], the 50% inhibitory concentration (IC50) at AKT2 (setting [1]) is 83.1 nM; at AKT1 WT (setting [2]), 10.6 nM.

With `Cc1ccc(C(=O)N[C@H]2CCc3cc(-n4c(-c5cccnc5N)nc5ccc(-c6ncco6)nc54)ccc32)cn1` [Compound 223], the IC50 is 586 nM on AKT2 (setting [1]) and 38.7 nM at AKT1 WT (setting [2]).

In the case of `Cc1cc(C(=O)N[C@H]2CCc3cc(-n4c(-c5cccnc5N)nc5ccc(-n6cccn6)nc54)ccc32)cc(C)n1` [Compound 76], the IC50 worked out at 39.4 nM at AKT2 (setting [1]) and 6.86 nM on AKT1 WT (AKT1 WT IC50 (nM), NanoBRET live cell target engagement, HEK293 cells).

As to `CCC#Cc1ccc2nc(-c3cccnc3N)n(-c3ccc4c(c3)CC[C@@H]4NC(=O)c3ccc(C(F)F)nc3)c2n1` [Compound 412], the IC50 turned out to be 686 nM on AKT2 (setting [3]) and 26.4 nM at AKT1 WT (setting [4]).

`Cc1ccc(C(=O)N[C@H]2CCc3cc(-n4c(-c5cccnc5N)nc5cc(F)c(-n6nccn6)nc54)ccc32)cn1` [Compound 466]: the half-inhibitory concentration (IC50) was 1570 nM on AKT2 (setting [3]) and 25.9 nM at AKT1 WT (setting [4]).

Turning to `Nc1ncccc1-c1nc2ccc(-n3ccc(N4CCS(=O)(=O)CC4)n3)nc2n1-c1ccc2c(c1)CC[C@@H]2NC1CCN(C(=O)C2CC2)CC1` [Compound 565], the figures for the IC50 on AKT2 (setting [3]) and at AKT1 WT (setting [4]) were 274 nM and 9.86 nM, respectively.

`Nc1ncccc1-c1nc2ccc(-n3cccn3)nc2n1-c1ccc2c(c1)CC[C@@H]2NC1CCC1` [Compound 88, (S)-3-(3-(1-(cyclobutylamino)-2,3-dihydro-1H-inden-5-yl)-5-(1H-pyrazol-1-yl)-3H-imidazo[4,5-b]pyridin-2-yl)pyridin-2-amine]: the figures for the IC50 at AKT2 (setting [1]) and at AKT1 WT (setting [2]) were 1810 nM and 155 nM, respectively.

As for `Cc1ncccc1OCC1CCc2cc(-n3c(-c4cccnc4N)nc4ccc(-n5cccn5)nc43)ccc21` (single isomer, unassigned) [Compound 252, (*)-3-(3-(1-(((2-methylpyridin-3-yl)oxy)methyl)-2,3-dihydro-1H-inden-5-yl)-5-(1H-pyrazol-1-yl)-3H-imidazo[4,5-b]pyridin-2-yl)pyridin-2-amine], the figures for the IC50 on AKT2 (setting [1]) and at AKT1 WT (setting [2]) were 2610 nM and 599 nM, respectively.

Regarding `Cn1ccc(N2CCC(N[C@@H]3c4ccc(-n5c(-c6cccnc6N)nc6ccc(-n7cccn7)nc65)cc4CC3F)CC2)n1` (some centres unmarked) [Compound 519], the IC50 stood at 1220 nM on AKT2 (setting [3]) and 39.2 nM on AKT1 WT (setting [4]).

For `CC(=O)Nc1c(F)cc(C(=O)N[C@H]2CCc3cc(-n4c(-c5cccnc5N)nc5ccc(-n6cccn6)nc54)ccc32)cc1F` [Compound 294], the half-maximal inhibitory concentration (IC50) at AKT2 (setting [1]) was 29.1 nM; on AKT1 WT (setting [2]), 5.27 nM.

As for `Cn1ccc(N2CCC(N[C@H]3CCc4cc(-n5c(-c6cccnc6N)nc6ccc(-n7ccc(C8CCOCC8)n7)nc65)ccc43)CC2)n1` [Compound 549], the IC50 at AKT2 (setting [3]) stood at 723 nM; at AKT1 WT (setting [4]), 27.6 nM.

Turning to `COc1cc(C(=O)N[C@H]2CCc3cc(-n4c(-c5cccnc5N)nc5ccc(-n6cccn6)nc54)ccc32)nn1C(F)F` [Compound 324], the results for the IC50 on AKT2 (setting [1]) and at AKT1 WT (setting [2]) were 502 nM and 23.1 nM, respectively.

On to `Nc1ncccc1-c1nc2ccc(-n3cccn3)nc2n1-c1ccc2c(c1)CC[C@@H]2NC(=O)c1ccc2ncnn2c1` [Compound 237], for which the figures for the IC50 at AKT2 (setting [1]) and on AKT1 WT (setting [2]) were 28.1 nM and 7.29 nM, respectively.

Consider `Nc1ncccc1-c1nc2ccc(-n3cccn3)nc2n1-c1ccc2c(c1)CC[C@@H]2NC(=O)c1cnc(C(F)F)s1` [Compound 376], for which the values for the IC50 at AKT2 (setting [1]) and on AKT1 WT (setting [2]) were 151 nM and 8.07 nM, respectively.

As to `Nc1ncccc1-c1nc2ccc(-n3cccn3)nc2n1-c1ccc2c(c1)CC[C@@H]2NC(=O)c1ccc(CF)nc1` [Compound 98], the IC50 on AKT2 (setting [1]) came to 52.6 nM; at AKT1 WT (setting [2]) it was 13.2 nM.

`Cc1cc(C(F)F)ncc1C(=O)N[C@H]1CCc2cc(-n3c(-c4cccnc4N)nc4ccc(-n5nccn5)nc43)ccc21` [Compound 397]: the IC50 on AKT2 (setting [3]) was 1440 nM; on AKT1 WT (setting [4]), 16.5 nM.

As for `COc1nccc(C(=O)N[C@H]2CCc3cc(-n4c(-c5cccnc5N)nc5ccc(-n6nccn6)nc54)ccc32)c1C` [Compound 380], the IC50 on AKT2 (setting [1]) was determined as 312 nM; on AKT1 WT (setting [2]) it was 13.9 nM.

As for `Cn1nccc1C(=O)N[C@H]1CCc2cc(-n3c(-c4cccnc4N)nc4ccc(-n5cccn5)nc43)ccc21` [Compound 144], the IC50 came out at 520 nM on AKT2 (setting [1]) and 43.6 nM at AKT1 WT (setting [2]).

As for `Nc1ncccc1-c1nc2ccc(-n3cccn3)nc2n1-c1ccc2c(c1)CC[C@@H]2NC(=O)c1ccnc(OC(F)F)c1` [Compound 202], the results for the IC50 on AKT2 (setting [1]) and on AKT1 WT (setting [2]) were 29.4 nM and 5.59 nM, respectively.

Regarding `Nc1ncccc1-c1nc2ccc(-n3cccn3)nc2n1-c1ccc2c(c1)CC[C@@H]2NC1CCc2ccncc21` (single isomer, unassigned) [Example 496, (R*)—N—((S)-5-(2-(2-aminopyridin-3-yl)-5-(1H-pyrazol-1-yl)-3H-imidazo[4,5-b]pyridin-3-yl)-2,3-dihydro-1H-inden-1-yl)-6,7-dihydro-5H-cyclopenta[c]pyridin-7-amine], the IC50 on AKT2 (setting [3]) is 1070 nM; on AKT1 WT (setting [4]), 28.2 nM.

`Cc1nccnc1C(=O)N[C@H]1CCc2cc(-n3c(-c4cccnc4N)nc4ccc(-c5cnn(C)n5)nc43)ccc21` [Compound 271]: the IC50 was more than 10000 nM on AKT2 (setting [1]) and 285 nM at AKT1 WT (setting [2]).

Turning to `Cc1ncccc1S(=O)(=O)N[C@H]1CCc2cc(-n3c(-c4cccnc4N)nc4ccc(-n5cccn5)nc43)ccc21` [Compound 139], the IC50 at AKT2 (setting [1]) stood at 5850 nM; at AKT1 WT (setting [2]), 89.6 nM.

A word on the IC50: it is the concentration that gives 50% inhibition.
